Data from ChEMBL document CHEMBL1697731, “Cheminformatics analysis of assertions mined from literature that describe drug-induced liver injury in different species” (Chem Res Toxicol, 2010).

Assays:
Hepatotoxicity [1] = test: Literature-mined compound from Fourches et al multi-species drug-induced liver injury (DILI) dataset, effect in humans; conditions: human
Hepatotoxicity [2] = test: Literature-mined compound from Fourches et al multi-species drug-induced liver injury (DILI) dataset, effect in non-rodents
Hepatotoxicity [3] = test: Literature-mined compound from Fourches et al multi-species drug-induced liver injury (DILI) dataset, effect in rodents; conditions: rodentia

Structure (SMILES)	Hepatotoxicity (Hepatotoxicity [1])	Hepatotoxicity (Hepatotoxicity [2])	Hepatotoxicity (Hepatotoxicity [3])	Hepatotoxicity (Hepatotoxicity [2]; Liver)	Hepatotoxicity (Hepatotoxicity [3]; Liver)
CCCCN1C[C@H](O)[C@@H](O)[C@H](O)[C@H]1CO	no drug-induced liver injury reported	no drug-induced liver injury reported	drug-induced liver injury reported	–	–
CC(C)CN(C[C@@H](O)[C@H](Cc1ccccc1)NC(=O)O[C@H]1CCOC1)S(=O)(=O)c1ccc(N)cc1	drug-induced liver injury reported	no drug-induced liver injury reported	no drug-induced liver injury reported	–	–
CCOC(=O)[C@H](CCc1ccccc1)N[C@@H](C)C(=O)N1[C@H](C(=O)O)C[C@@H]2CCC[C@@H]21	drug-induced liver injury reported	no drug-induced liver injury reported	drug-induced liver injury reported	–	–
FC(F)OC(F)C(F)(F)F (stereo not drawn)	drug-induced liver injury reported	no drug-induced liver injury reported	drug-induced liver injury reported	–	–
CCN1CC(CCN2CCOCC2)C(c2ccccc2)(c2ccccc2)C1=O.Cl (stereo not drawn)	drug-induced liver injury reported	no drug-induced liver injury reported	no drug-induced liver injury reported	–	–
N#Cc1cc(NC(=O)C(=O)O)c(Cl)c(NC(=O)C(=O)O)c1.NC(CO)(CO)CO	no drug-induced liver injury reported	no drug-induced liver injury reported	drug-induced liver injury reported	–	–
C[C@@H](O)[C@H](NC(=O)N(C)c1ncnc2c1ncn2[C@@H]1O[C@H](COP(=O)(O)O)[C@@H](O)[C@H]1O)C(=O)O	no drug-induced liver injury reported	no drug-induced liver injury reported	drug-induced liver injury reported	–	–
FC(F)OC(F)(F)C(F)Cl (stereo not drawn)	drug-induced liver injury reported	drug-induced liver injury reported	drug-induced liver injury reported	–	–
CC[C@@H](C(N)=O)N1CCCC1=O	drug-induced liver injury reported	no drug-induced liver injury reported	no drug-induced liver injury reported	–	–
CCOC(=O)[C@H](CCc1ccccc1)N[C@@H](C)C(=O)N1Cc2ccccc2C[C@H]1C(=O)O	drug-induced liver injury reported	no drug-induced liver injury reported	no drug-induced liver injury reported	–	–
C=Cc1c(C)c2cc3nc(c(CC(=O)NC(CC(=O)O)C(=O)O)c4nc(cc5[nH]c(cc1[nH]2)c(C)c5CC)C(C)=C4C(=O)O)C(CCC(=O)O)C3C (stereo not drawn)	no drug-induced liver injury reported	no drug-induced liver injury reported	drug-induced liver injury reported	–	–
C[C@@H]1O[C@@H](O[C@@H]2C=C3CC[C@@H]4[C@H](CC[C@]5(C)[C@@H](c6ccc(=O)oc6)CC[C@]45O)[C@@]3(C)CC2)[C@H](O)[C@H](O)[C@H]1O[C@@H]1O[C@H](CO)[C@@H](O)[C@H](O)[C@H]1O	no drug-induced liver injury reported	no drug-induced liver injury reported	drug-induced liver injury reported	–	–
CCCc1nn(C)c2c(=O)[nH]c(-c3cc(S(=O)(=O)N4CCN(C)CC4)ccc3OCC)nc12	drug-induced liver injury reported	no drug-induced liver injury reported	no drug-induced liver injury reported	–	–
C[C@H](NC(=O)C(=O)Nc1ccccc1C(C)(C)C)C(=O)N[C@@H](CC(=O)O)C(=O)COc1c(F)c(F)cc(F)c1F	no drug-induced liver injury reported	no drug-induced liver injury reported	drug-induced liver injury reported	–	–
CCC(=C(c1ccc(O)cc1)c1ccc(OCCN(C)C)cc1)c1ccccc1	drug-induced liver injury reported	no drug-induced liver injury reported	drug-induced liver injury reported	–	–
CNC(=O)[C@@H](NC(=O)[C@H](CC(C)C)[C@H](O)C(=O)NO)C(C)(C)C	no drug-induced liver injury reported	no drug-induced liver injury reported	drug-induced liver injury reported	–	–
CCOC(=O)[C@H](CCc1ccccc1)N[C@@H](C)C(=O)N1C(=O)N(C)C[C@H]1C(=O)O	no drug-induced liver injury reported	no drug-induced liver injury reported	drug-induced liver injury reported	–	–
C=C1[C@H](CO)[C@@H](O)C[C@@H]1n1cnc2c(=O)[nH]c(N)nc21.O	drug-induced liver injury reported	no drug-induced liver injury reported	no drug-induced liver injury reported	–	–
CC(C)(C)NC(=O)[C@@H]1CN(Cc2cccnc2)CCN1C[C@@H](O)C[C@@H](Cc1ccccc1)C(=O)N[C@H]1c2ccccc2C[C@H]1O.O	drug-induced liver injury reported	no drug-induced liver injury reported	drug-induced liver injury reported	–	–
CCOC(=O)[C@H](CCc1ccccc1)N[C@@H](C)C(=O)N1CCC[C@H]1C(=O)O	drug-induced liver injury reported	no drug-induced liver injury reported	drug-induced liver injury reported	–	–
Cc1c(O)cccc1C(=O)N[C@@H](CSc1ccccc1)[C@H](O)CN1C[C@H]2CCCC[C@H]2C[C@H]1C(=O)NC(C)(C)C	drug-induced liver injury reported	no drug-induced liver injury reported	no drug-induced liver injury reported	–	–
Cc1onc(-c2ccccc2)c1C(=O)N[C@@H]1C(=O)N2[C@@H]1SC(C)(C)[C@@H]2C(=O)[O-].[Na+]	drug-induced liver injury reported	no drug-induced liver injury reported	no drug-induced liver injury reported	–	–
N[C@@H](Cc1ccc(N(CCCl)CCCl)cc1)C(=O)O	drug-induced liver injury reported	no drug-induced liver injury reported	drug-induced liver injury reported	–	–
CCN(CC)CCOc1ccc(C(=C(Cl)c2ccccc2)c2ccccc2)cc1 (stereo in doubt; form 2) [CLOMIPHENE]	no drug-induced liver injury reported	–	drug-induced liver injury reported	–	–
C[C@]12CCC(=O)C=C1CC[C@@H]1[C@@H]2CC[C@@]2(C)[C@H]1CC[C@]2(C)O (stereo in doubt; form 2) [METHYLTESTOSTERONE]	drug-induced liver injury reported	–	–	–	–
CC(=O)[C@H]1CC[C@H]2[C@@H]3CCC4=CC(=O)CC[C@]4(C)[C@H]3CC[C@]12C (stereo in doubt; form 2) [PROGESTERONE]	–	no drug-induced liver injury reported	no drug-induced liver injury reported	–	–
NCC(=O)O [GLYCINE]	–	–	–	drug-induced liver injury reported	drug-induced liver injury reported
Cc1ncc(CO)c(CO)c1O [PYRIDOXINE]	–	–	–	no drug-induced liver injury reported	drug-induced liver injury reported
